Experiment: refractive index (Na D-line) (dimensionless); wn = mass fraction of the nth substance listed
Conditions: 101.3 kPa, Liquid, Standard Abbe refractometry

N#C[S-].[K+] [potassium thiocyanate] + O
refractive index
Conditions	293 K	298 K	303 K	308 K	313 K
w1 = 0.218	1.3754	1.37475	1.37415	1.3731	1.3728
w1 = 0.244	1.38075	1.3802	1.3796	1.37855	1.3779
w1 = 0.265	1.38565	1.3852	1.3844	1.383	1.38205
w1 = 0.291	1.39085	1.3906	1.3896	1.38835	1.3876
w1 = 0.321	1.39825	1.39675	1.396	1.3949	1.39375
w1 = 0.359	1.4061	1.4054	1.4046	1.4033	1.40235
w1 = 0.381	1.41155	1.4105	1.4097	1.4079	1.40725
w1 = 0.406	1.41705	1.41615	1.4147	1.4139	1.41305
w1 = 0.42	1.41995	1.41945	1.4183	1.41675	1.41585
w1 = 0.435	1.42345	1.423	1.422	1.4199	1.41875
w1 = 0.451	1.42755	1.42705	1.42585	1.4241	1.4229
w1 = 0.468	1.43175	1.43085	1.4295	1.4281	1.4272
w1 = 0.477	1.43375	1.433	1.4319	1.43035	1.4294
w1 = 0.487	1.4358	1.4352	1.4344	1.43245	1.4315
w1 = 0.497	1.43825	1.43755	1.43665	1.4347	1.43375
w1 = 0.507	1.441	1.44045	1.43855	1.43715	1.4362
w1 = 0.518	1.4437	1.443	1.44095	1.4393	1.4385
w1 = 0.529	1.4465	1.44635	1.44455	1.4423	1.44175
w1 = 0.54	1.4493	1.44905	1.44675	1.4451	1.44415
w1 = 0.553	1.4521	1.45205	1.4499	1.4473	1.44725
w1 = 0.565	1.45545	1.45505	1.4534	1.45115	1.45065
w1 = 0.579	1.45915	1.4587	1.4569	1.45455	1.4536
w1 = 0.584	1.46045	1.46015	1.4584	1.4559	1.4554
w1 = 0.59	1.46215	1.4614	1.4599	1.4579	1.45645
w1 = 0.595	1.4635	1.46305	1.46155	1.4595	1.4587
w1 = 0.601	1.46515	1.46505	1.4633	1.46085	1.4596
w1 = 0.607	1.4672	1.46635	1.465	1.46265	1.462
w1 = 0.613	1.4681	1.46775	1.4663	1.46415	1.46305
w1 = 0.62	1.4694	1.4693	1.4682	1.46645	1.46495
w1 = 0.626	1.47155	1.47145	1.46985	1.46845	1.46715
w1 = 0.632	1.4733	1.47285	1.4721	1.4698	1.4689
w1 = 0.639	1.47505	1.4747	1.47385	1.47195	1.4704
w1 = 0.646	1.4771	1.47675	1.4757	1.47355	1.4724
w1 = 0.652	1.478	1.47805	1.4773	1.4761	1.4745
w1 = 0.659	1.4809	1.4805	1.4795	1.4784	1.47655
w1 = 0.667	1.48275	1.4826	1.4813	1.48045	1.47875
w1 = 0.674	1.48485	1.4846	1.4835	1.48215	1.48105
w1 = 0.681	1.4875	1.48685	1.48595	1.48455	1.483
w1 = 0.689	1.4891	1.4885	1.4876	1.4865	1.4855
w1 = 0.697	1.49135	1.4907	1.4896	1.4884	1.4871
w1 = 0.705	1.49315	1.4922	1.49135	1.49005	1.48924
